Here are results for 13 compounds from US11274076B2, “Process for preparing 1, 2-benzenedimethanol compound” (GOWAN COMPANY, L.L.C., priority 2016, dated 2022).

Bounds are passed on as bounds.

This assay has as its system Pythium graminicola. Kind of assay: Test 4: control effect against damping-off disease of rice by Pythium (soil irrigation). In kind it is in vivo. Conditions: 336 h, 1000 ppm test suspension, 2.5 ml soil irrigation, rice (Koshihikari) in contaminated soil, from degree of disease development.
For `CS(=O)(=O)Oc1c(F)ccc2c1COC(c1csc(C3CCN(C(=O)Cn4nc(C(F)F)cc4C(F)F)CC3)n1)OC2` (stereo not shown) [Compound 2-49, 4-[4-(7-fluoro-6-methylsulfonyloxy-1,5-dihydro-3H-2,4-benzodioxepin-3-yl)-2-thiazolyl]-1-[2-[3,5-bis(difluoromethyl)-1H-pyrazol-1-yl]acetyl]piperidine], the pest or weed control (usually the degree to which the test organism was suppressed or injured, in per cent) at 1000 ppm was at least 90%. For `COc1ccc(OS(C)(=O)=O)c2c1COC(c1csc(C3CCN(C(=O)Cn4nc(Cl)cc4Cl)CC3)n1)OC2` (stereo not shown) [Compound 2-33, 4-[4-(6-methoxy-9-methylsulfonyloxy-1,5-dihydro-3H-2,4-benzodioxepin-3-yl)-2-thiazolyl]-1-[2-(3,5-dichloro-1H-pyrazol-1-yl)acetyl]piperidine] the value was at least 90%. As to `CS(=O)(=O)Oc1ccc(I)c2c1COC(c1csc(C3CCN(C(=O)Cn4nc(C(F)(F)F)cc4C(F)(F)F)CC3)n1)OC2` (stereo not shown) [Compound 2-46, 4-[4-(6-iodo-9-methylsulfonyloxy-1,5-dihydro-3H-2,4-benzodioxepin-3-yl)-2-thiazolyl]-1-[2-[3,5-bis(trifluoromethyl)-1H-pyrazol-1-yl]acetyl]piperidine], the pest or weed control at 1000 ppm was at least 90%. Regarding `CS(=O)(=O)Oc1ccc(OS(C)(=O)=O)c2c1COC(c1csc(C3CCN(C(=O)Cn4nc(C(F)(F)F)cc4C(F)(F)F)CC3)n1)OC2` [Compound 2-54, 4-[4-[6,9-bis(methylsulfonyloxy)-1,5-dihydro-3H-2,4-benzodioxepin-3-yl]-2-thiazolyl]-1-[2-[3,5-bis(trifluoromethyl)-1H-pyrazol-1-yl]acetyl]piperidine], the pest or weed control at 1000 ppm is at least 90%. For `CS(=O)(=O)Oc1cccc2c1COC(c1csc(C3CCN(C(=O)Cc4cc(C(F)(F)F)ccc4C(F)(F)F)CC3)n1)OC2` (stereo not shown) [Compound 3-8, 4-[4-(6-methylsulfonyloxy-1,5-dihydro-3H-2,4-benzodioxepin-3-yl)-2-thiazolyl]-1-[2-[2,5-bis(trifluoromethyl)phenyl]acetyl]piperidine] the value was at least 90%; for `Cc1ccc(C)c(CC(=O)N2CCC(c3nc(C4OCc5c(OS(C)(=O)=O)cc(C)c(C)c5CO4)cs3)CC2)c1` (stereo not shown) [Compound 3-9, 4-[4-(6,7-dimethyl-9-methylsulfonyloxy-1,5-dihydro-3H-2,4-benzodioxepin-3-yl)-2-thiazolyl]-1-[2-(2,5-dimethylphenyl)acetyl]piperidine], at least 90%; for `CS(=O)(=O)Oc1c(F)ccc2c1COC(c1csc(C3CCN(C(=O)Cn4nc(C(F)(F)F)cc4C(F)(F)F)CC3)n1)OC2` (stereo not shown) [Compound 2-48, 4-[4-(7-fluoro-6-methylsulfonyloxy-1,5-dihydro-3H-2,4-benzodioxepin-3-yl)-2-thiazolyl]-1-[2-[3,5-bis(trifluoromethyl)-1H-pyrazol-1-yl]acetyl]piperidine], at least 90%. As for `CCCCS(=O)(=O)Oc1cccc2c1COC(c1csc(C3CCN(C(=O)Cc4cc(C)ccc4C)CC3)n1)OC2` (stereo not shown) [Compound 3-4, 4-[4-(6-butylsulfonyloxy-1,5-dihydro-3H-2,4-benzodioxepin-3-yl)-2-thiazolyl]-1-[2-(2,5-dimethylphenyl)acetyl]piperidine], the figure is at least 90%.

`CS(=O)(=O)Oc1ccc(I)c2c1COC(c1csc(C3CCN(C(=O)Cc4cc(Cl)ccc4Cl)CC3)n1)OC2` (stereo not shown) [Compound 3-20, 4-[4-(6-iodo-9-methylsulfonyloxy-1,5-dihydro-3H-2,4-benzodioxepin-3-yl)-2-thiazolyl]-1-[2-(2,5-dichlorophenyl)acetyl]piperidine]: the pest or weed control at 1000 ppm was at least 90%. Compound `CS(=O)(=O)Oc1ccc(Br)c2c1COC(c1csc(C3CCN(C(=O)Cn4nc(C(F)(F)F)cc4C(F)(F)F)CC3)n1)OC2` (stereo not shown) [Compound 2-42, 4-[4-(6-bromo-9-methylsulfonyloxy-1,5-dihydro-3H-2,4-benzodioxepin-3-yl)-2-thiazolyl]-1-[2-[3,5-bis(trifluoromethyl)-1H-pyrazol-1-yl]acetyl]piperidine] showed a pest or weed control at 1000 ppm of at least 90%. For the compound `CS(=O)(=O)Oc1cccc2c1COC(c1csc(C3CCN(C(=O)Cn4nc(C(Cl)Cl)cc4C(Cl)Cl)CC3)n1)OC2` (stereo not shown) [Compound 2-38, 4-[4-(6-methylsulfonyloxy-1,5-dihydro-3H-2,4-benzodioxepin-3-yl)-2-thiazolyl]-1-[2-[3,5-bis(dichloromethyl)-1H-pyrazol-1-yl]acetyl]piperidine], the pest or weed control at 1000 ppm was at least 90%. As for `CS(=O)(=O)Oc1c(F)ccc2c1COC(c1csc(C3CCN(C(=O)Cc4cc(Cl)ccc4Cl)CC3)n1)OC2` (stereo not shown) [Compound 3-19, 4-[4-(7-fluoro-6-methylsulfonyloxy-1,5-dihydro-3H-2,4-benzodioxepin-3-yl)-2-thiazolyl]-1-[2-(2,5-dichlorophenyl)acetyl]piperidine], the figure is at least 90%; as for `COc1ccc(OS(C)(=O)=O)c2c1COC(c1csc(C3CCN(C(=O)Cn4nc(C)cc4C)CC3)n1)OC2` (stereo not shown) [Compound 2-34, 4-[4-(6-methoxy-9-methylsulfonyloxy-1,5-dihydro-3H-2,4-benzodioxepin-3-yl)-2-thiazolyl]-1-[2-(3,5-dimethyl-1H-pyrazol-1-yl)acetyl]piperidine], at least 90%.
